Read-outs that look alike come from different tables or passages of the source.
Key:
metastatic solid tumour = assay: Anti-tumour activity in patients, WHO criteria; type: in vivo, human; conditions: 41 patients, 9-800 mg m-2
[1] = system: sublines of the Jurkat human leukaemia cell line, which have reduced amounts of topoisomerase II; parameters: method as in Finlay et al, 1993; conditions: ref Finlay et al, 1993; cited from earlier work
Lewis lung carcinoma = system: Lewis lung carcinoma; parameters: method as in Atwell et al, 1987; Finlay and Baguley, 1989; conditions: Lewis lung carcinoma in mice; ref Atwell et al, 1987; Finlay and Baguley, 1989; cited from earlier work
[2] = system: patients with solid tumours
murine 16/C tumour = system: murine 16/C tumour; parameters: method as in Baguley et al, 1995; conditions: ref Baguley et al, 1995; cited from earlier work
Colon 38 = system: Colon 38; parameters: method as in Baguley et al, 1995; conditions: Colon 38 tumour; ref Baguley et al, 1995; cited from earlier work
P388 leukaemia = conditions: cited from earlier work
[3] = system: multi-drug resistant subline of the P388 leukaemia expressing the P-glycoprotein; parameters: method as in Baguley et al, 1990; conditions: ref Baguley et al, 1990; cited from earlier work
Colon 11 A = system: Colon 11 A; parameters: method as in Baguley et al, 1995; conditions: Colon 11 A tumour; ref Baguley et al, 1995; cited from earlier work
[4] = parameters: method as in Evans et al, 1992; Paxton et al, 1992, 1993a, 1993b; conditions: preclinical pharmacology studies; ref Evans et al, 1992; Paxton et al, 1992, 1993a, 1993b; cited from earlier work
[5] = human, in vivo
clinical = conditions: human, in vivo; for Cmax: 800 mg
mice = conditions: murine data, cited from earlier work
L1210 leukaemia = conditions: cited from earlier work
[6] = parameters: method as in Evans et al, 1992; Paxton et al, 1992, 1993a, 1993b; conditions: preclinical; ref Evans et al, 1992; Paxton et al, 1992, 1993a, 1993b; cited from earlier work
cancer patients = system: cancer patients; parameters: method as in Abigerges et al, 1996; conditions: phase I trial; ref Abigerges et al, 1996; cited from earlier work

## CN(C)CCNC(=O)c1cccc2cc3ccccc3nc12.Cl.Cl [DACA, N-[2-(dimethylamino)ethyl] acridine-4-carboxamide dihydrochloride]
Metastatic solid tumour
  objective responses according to WHO criteria: no objective responses
[1]
  sensitivity of Jurkat sublines with reduced topoisomerase II: retain sensitivity
Lewis lung carcinoma
  activity in vivo: highly active
[2]; 3 h i.v. infusion on 3 successive days, repeated every 3 weeks
  maximum tolerated dose (MTD): 800 mg m-2 d-1
[2]; 3 h i.v. infusion on 3 successive days, 800 mg m-2
  dose-limiting toxicity (DLT): pain during the infusion
[2]; all dose levels
  clinically significant myelosuppression: rare
Murine 16/C tumour
  activity in vivo: highly active
Colon 38
  activity in vivo: highly active
P388 leukaemia
  activity in vivo: only moderate activity
[3]
  activity against multi-drug resistant P388 subline expressing P-glycoprotein: maintains activity
Colon 11 A
  activity in vivo: highly active
[4]
  tissue levels in brain, liver, kidney and heart relative to plasma: substantially higher
[5]
  T1/2: 2.08 h
  Vss: 145.21
  highest AUC on day 3 of all patients: 54.2
  plasma clearance: 81.11
  relationship between dose and AUC: linear relationship
clinical; female, Cmax
  Cmax: 3150 ng/mL
clinical; Cmax (range)
  Cmax: 2310 to 12100 ng/mL
clinical; T1/2
  half-life: 2.22 h
clinical; Tmax
  Tmax: 2.91 h
clinical; Vss
  Vd: 143 L
clinical; plasma clearance
  clearance: 1400 mL/min
mice; five consecutive daily i.v. doses
  LD10: approximately 30 mg kg-1 per day
mice; single i.v. dose
  LD10: 58 mg/kg
L1210 leukaemia
  activity in vivo: only moderate activity
[6]
  unbound fraction in mouse plasma: 15.8%

## COc1cccc2c1C(=O)c1c(O)c3c(c(O)c1C2=O)C[C@@](O)(C(=O)CO)C[C@@H]3O[C@H]1C[C@H](N)[C@H](O)[C@H](C)O1 [doxorubicin]
[1]
  sensitivity of Jurkat sublines with reduced topoisomerase II: highly resistant

## COc1cc([C@@H]2c3cc4c(cc3[C@@H](O[C@@H]3O[C@@H]5CO[C@@H](C)O[C@H]5[C@H](O)[C@H]3O)[C@H]3COC(=O)[C@H]23)OCO4)cc(OC)c1O [etoposide]
[1]
  sensitivity of Jurkat sublines with reduced topoisomerase II: highly resistant

## Cc1cnc(NCCCN(C)C)c2c1[nH]c1ccc3cc(O)ccc3c12 [intoplicine]
Cancer patients
  dose-limiting toxicity: hepatotoxicity
